# Source: US10517889B2, “Modulators of SMAD7 expression” (Ionis Pharmaceuticals, Inc., priority 2017, dated 2019)
# Strand notation (5' to 3'): a small letter for the sugar, then the base; units joined by * are phosphorothioate-linked, units joined directly phosphodiester-linked; [ ] holds rarer units or linkages, { } end groups; capitals alone tell only the bases. k = constrained ethyl (cEt); [5mC] = 5-methylcytosine; d = 2'-deoxy (DNA)
# Tested on: human SMAD7 mRNA
# Test: Antisense inhibition of human SMAD7 mRNA expression in Hep3B cells by 3-10-3 cEt gapmers, 10,000 nM, electroporation (Example 2)
# Format: cell-based
# Settings: SMAD7 mRNA, approximately 24 hours, primer probe set RTS5062, relative to untreated control cells
# Method in brief: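 Hep3B cells (20,000/well) were electroporated with 10,000 nM 3-10-3 cEt gapmer (16-mer, phosphorothioate, 5-methylcytosines) and harvested after about 24 h. SMAD7 mRNA quantified by RT-qPCR with primer probe set RTS5062, normalized to total RNA by RiboGreen; percent inhibition relative to untreated cells.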
# [1] = Hep3B cells, 10,000 nM antisense oligonucleotide, electroporation
# [2] = Hep3B cells, electroporation with 10,000 nM antisense oligonucleotide
Substance,% Inhibition [1],% Inhibition [2]
829753 (antisense kT*k[5mC]*k[5mC]*d[5mC]*d[5mC]*dG*d[5mC]*dA*dG*d[5mC]*dT*d[5mC]*dG*k[5mC]*k[5mC]*kT) [compound 829753],29%,
829754 (antisense kT*k[5mC]*kT*d[5mC]*d[5mC]*d[5mC]*d[5mC]*dG*d[5mC]*dA*dG*d[5mC]*dT*k[5mC]*kG*k[5mC]) [compound 829754],49%,
829755 (antisense kT*kT*k[5mC]*dT*d[5mC]*d[5mC]*d[5mC]*d[5mC]*dG*d[5mC]*dA*dG*d[5mC]*kT*k[5mC]*kG) [compound 829755],52%,
829756 (antisense k[5mC]*k[5mC]*kG*dT*d[5mC]*dG*d[5mC]*d[5mC]*d[5mC]*d[5mC]*dT*dT*d[5mC]*kT*k[5mC]*k[5mC]) [compound 829756],42%,
829757 (antisense k[5mC]*k[5mC]*kG*dG*d[5mC]*d[5mC]*d[5mC]*d[5mC]*dA*dT*dG*d[5mC]*dG*k[5mC]*kT*k[5mC]) [compound 829757],15%,
829758 (antisense k[5mC]*kA*k[5mC]*d[5mC]*dG*dG*d[5mC]*d[5mC]*d[5mC]*d[5mC]*dA*dT*dG*k[5mC]*kG*k[5mC]) [compound 829758],24%,
829759 (antisense k[5mC]*k[5mC]*kG*d[5mC]*d[5mC]*dA*d[5mC]*d[5mC]*dG*dG*d[5mC]*d[5mC]*d[5mC]*k[5mC]*kA*kT) [compound 829759],51%,
829760 (antisense k[5mC]*k[5mC]*kG*d[5mC]*d[5mC]*dT*dT*dG*d[5mC]*d[5mC]*d[5mC]*dA*dG*kG*k[5mC]*kA) [compound 829760],3%,
829761 (antisense kT*k[5mC]*kA*dG*dA*dT*d[5mC]*d[5mC]*dG*d[5mC]*d[5mC]*dT*d[5mC]*kG*kG*k[5mC]) [compound 829761],21%,
829763 (antisense kG*kT*kT*dT*d[5mC]*dT*dT*dG*dA*dG*d[5mC]*dA*d[5mC]*k[5mC]*kG*kA) [compound 829763],65%,
829764 (antisense k[5mC]*k[5mC]*kG*d[5mC]*dT*d[5mC]*d[5mC]*dT*dT*d[5mC]*dA*dG*dT*kT*kT*k[5mC]) [compound 829764],44%,
829765 (antisense kG*k[5mC]*k[5mC]*dG*d[5mC]*dT*d[5mC]*d[5mC]*dT*dT*d[5mC]*dA*dG*kT*kT*kT) [compound 829765],28%,
829766 (antisense k[5mC]*kT*kG*d[5mC]*d[5mC]*dG*d[5mC]*dT*d[5mC]*d[5mC]*dT*dT*d[5mC]*kA*kG*kT) [compound 829766],32%,
829768 (antisense kG*k[5mC]*kA*dG*dG*dA*dG*dG*d[5mC]*dA*d[5mC]*dG*d[5mC]*kG*kG*kT) [compound 829768],41%,
829769 (antisense k[5mC]*kA*kG*d[5mC]*dA*dG*dG*dA*dG*dG*d[5mC]*dA*d[5mC]*kG*k[5mC]*kG) [compound 829769],46%,
829770 (antisense k[5mC]*kA*kG*dT*d[5mC]*d[5mC]*dA*dG*dG*d[5mC]*dG*dG*d[5mC]*k[5mC]*kG*kG) [compound 829770],42%,
829771 (antisense kG*k[5mC]*kA*dG*dT*d[5mC]*d[5mC]*dA*dG*dG*d[5mC]*dG*dG*k[5mC]*k[5mC]*kG) [compound 829771],22%,
829772 (antisense kA*kG*kG*dA*d[5mC]*dG*dA*dG*dG*dG*d[5mC]*dG*dG*k[5mC]*kT*kG) [compound 829772],52%,
829773 (antisense kG*kT*kA*dG*dG*dA*d[5mC]*dG*dA*dG*dG*dG*d[5mC]*kG*kG*k[5mC]) [compound 829773],50%,
829774 (antisense kA*kG*kT*dA*dG*dG*dA*d[5mC]*dG*dA*dG*dG*dG*k[5mC]*kG*kG) [compound 829774],22%,
829775 (antisense k[5mC]*kG*kA*dG*dT*dA*dG*dG*dA*d[5mC]*dG*dA*dG*kG*kG*k[5mC]) [compound 829775],59%,
829777 (antisense kG*kA*kG*d[5mC]*dG*dA*dG*dT*dA*dG*dG*dA*d[5mC]*kG*kA*kG) [compound 829777],37%,
829778 (antisense kG*kG*kA*dG*d[5mC]*dG*dA*dG*dT*dA*dG*dG*dA*k[5mC]*kG*kA) [compound 829778],46%,
829779 (antisense kG*kG*kG*dA*dG*d[5mC]*dG*dA*dG*dT*dA*dG*dG*kA*k[5mC]*kG) [compound 829779],58%,
829780 (antisense k[5mC]*kG*kG*d[5mC]*d[5mC]*dA*d[5mC]*d[5mC]*dT*dG*dA*dA*d[5mC]*kA*k[5mC]*kT) [compound 829780],37%,
829781 (antisense k[5mC]*k[5mC]*kG*dG*d[5mC]*d[5mC]*dA*d[5mC]*d[5mC]*dT*dG*dA*dA*k[5mC]*kA*k[5mC]) [compound 829781],31%,

Substance,% Inhibition [1],% Inhibition [2]
829782 (antisense kA*kT*k[5mC]*d[5mC]*dG*dG*d[5mC]*d[5mC]*dA*d[5mC]*d[5mC]*dT*dG*kA*kA*k[5mC]) [compound 829782],36%,
829783 (antisense kG*kA*kT*d[5mC]*d[5mC]*dG*dG*d[5mC]*d[5mC]*dA*d[5mC]*d[5mC]*dT*kG*kA*kA) [compound 829783],52%,
829784 (antisense kA*kG*kA*dT*d[5mC]*d[5mC]*dG*dG*d[5mC]*d[5mC]*dA*d[5mC]*d[5mC]*kT*kG*kA) [compound 829784],32%,
829785 (antisense kA*kT*kG*d[5mC]*d[5mC]*dT*dG*dA*dG*dA*dT*d[5mC]*d[5mC]*kG*kG*k[5mC]) [compound 829785],27%,
829786 (antisense kG*kA*kA*dT*dG*d[5mC]*d[5mC]*dT*dG*dA*dG*dA*dT*k[5mC]*k[5mC]*kG) [compound 829786],56%,
829787 (antisense kG*kG*kA*dA*dT*dG*d[5mC]*d[5mC]*dT*dG*dA*dG*dA*kT*k[5mC]*k[5mC]) [compound 829787],30%,
829788 (kT*k[5mC]*k[5mC]*dG*dA*dG*dG*dA*dA*dT*dG*d[5mC]*d[5mC]*kT*kG*kA; antisense) [compound 829788],41%,
829789 (kA*k[5mC]*kT*dT*d[5mC]*d[5mC]*dG*dA*dG*dG*dA*dA*dT*kG*k[5mC]*k[5mC]; antisense) [compound 829789],42%,
829790 (k[5mC]*k[5mC]*k[5mC]*dG*dT*dA*dA*dG*dA*dT*dT*d[5mC]*dA*k[5mC]*kA*kG; antisense) [compound 829790],51%,
829791 (kT*kT*k[5mC]*d[5mC]*d[5mC]*dG*dT*dA*dA*dG*dA*dT*dT*k[5mC]*kA*k[5mC]; antisense) [compound 829791],38%,
829792 (k[5mC]*kT*kT*d[5mC]*d[5mC]*d[5mC]*dG*dT*dA*dA*dG*dA*dT*kT*k[5mC]*kA; antisense) [compound 829792],39%,
829793 (kT*k[5mC]*kT*dT*d[5mC]*d[5mC]*d[5mC]*dG*dT*dA*dA*dG*dA*kT*kT*k[5mC]; antisense) [compound 829793],41%,
829794 (kG*kA*kT*d[5mC]*dT*dT*d[5mC]*d[5mC]*d[5mC]*dG*dT*dA*dA*kG*kA*kT; antisense) [compound 829794],24%,
829795 (kT*kG*kA*dT*d[5mC]*dT*dT*d[5mC]*d[5mC]*d[5mC]*dG*dT*dA*kA*kG*kA; antisense) [compound 829795],,34%
829796 (kT*kT*kG*dA*dT*d[5mC]*dT*dT*d[5mC]*d[5mC]*d[5mC]*dG*dT*kA*kA*kG; antisense) [compound 829796],,27%
829797 (kG*kG*kT*dT*dG*dA*dT*d[5mC]*dT*dT*d[5mC]*d[5mC]*d[5mC]*kG*kT*kA; antisense) [compound 829797],,54%
829798 (kG*kG*kG*dT*dT*dG*dA*dT*d[5mC]*dT*dT*d[5mC]*d[5mC]*k[5mC]*kG*kT; antisense) [compound 829798],,26%
829799 (kT*k[5mC]*kG*dG*d[5mC]*dT*dA*dA*dG*dG*dT*dG*dA*kT*kG*kG; antisense) [compound 829799],,51%
829800 (kG*kT*k[5mC]*dG*dG*d[5mC]*dT*dA*dA*dG*dG*dT*dG*kA*kT*kG; antisense) [compound 829800],,30%
829801 (kA*kG*kT*d[5mC]*dG*dG*d[5mC]*dT*dA*dA*dG*dG*dT*kG*kA*kT; antisense) [compound 829801],,8%
829802 (kT*kT*k[5mC]*dG*d[5mC]*dA*dG*dA*dG*dT*d[5mC]*dG*dG*k[5mC]*kT*kA; antisense) [compound 829802],,28%
829803 (kA*kG*kT*dT*d[5mC]*dG*d[5mC]*dA*dG*dA*dG*dT*d[5mC]*kG*kG*k[5mC]; antisense) [compound 829803],,35%
829804 (kT*kA*kG*dT*dT*d[5mC]*dG*d[5mC]*dA*dG*dA*dG*dT*k[5mC]*kG*kG; antisense) [compound 829804],,39%
829805 (kT*k[5mC]*kT*dA*dG*dT*dT*d[5mC]*dG*d[5mC]*dA*dG*dA*kG*kT*k[5mC]; antisense) [compound 829805],,37%
829806 (kG*kA*k[5mC]*dT*d[5mC]*dT*dA*dG*dT*dT*d[5mC]*dG*d[5mC]*kA*kG*kA; antisense) [compound 829806],,41%
829807 (kA*kG*kA*d[5mC]*dT*d[5mC]*dT*dA*dG*dT*dT*d[5mC]*dG*k[5mC]*kA*kG; antisense) [compound 829807],,41%
